This passage reports IC50, AC50 and EC50 results from ChEMBL document CHEMBL1201862, “PubChem BioAssay data set” (2004).

The IC50 is the point on the concentration scale where inhibition reaches its midpoint. By AC50 is commonly meant the concentration giving half of the maximal activity seen. Broadly, the EC50 is the midpoint of the concentration-response curve.

Active and inactive are the calls of the source. A value given as a limit tells only on which side of the number the result lay.

Assay [1] has as its target T1, Apoptotic protease-activating factor 1 (Homo sapiens, UniProt O14727).
T1 sequence (O14727 whole entry): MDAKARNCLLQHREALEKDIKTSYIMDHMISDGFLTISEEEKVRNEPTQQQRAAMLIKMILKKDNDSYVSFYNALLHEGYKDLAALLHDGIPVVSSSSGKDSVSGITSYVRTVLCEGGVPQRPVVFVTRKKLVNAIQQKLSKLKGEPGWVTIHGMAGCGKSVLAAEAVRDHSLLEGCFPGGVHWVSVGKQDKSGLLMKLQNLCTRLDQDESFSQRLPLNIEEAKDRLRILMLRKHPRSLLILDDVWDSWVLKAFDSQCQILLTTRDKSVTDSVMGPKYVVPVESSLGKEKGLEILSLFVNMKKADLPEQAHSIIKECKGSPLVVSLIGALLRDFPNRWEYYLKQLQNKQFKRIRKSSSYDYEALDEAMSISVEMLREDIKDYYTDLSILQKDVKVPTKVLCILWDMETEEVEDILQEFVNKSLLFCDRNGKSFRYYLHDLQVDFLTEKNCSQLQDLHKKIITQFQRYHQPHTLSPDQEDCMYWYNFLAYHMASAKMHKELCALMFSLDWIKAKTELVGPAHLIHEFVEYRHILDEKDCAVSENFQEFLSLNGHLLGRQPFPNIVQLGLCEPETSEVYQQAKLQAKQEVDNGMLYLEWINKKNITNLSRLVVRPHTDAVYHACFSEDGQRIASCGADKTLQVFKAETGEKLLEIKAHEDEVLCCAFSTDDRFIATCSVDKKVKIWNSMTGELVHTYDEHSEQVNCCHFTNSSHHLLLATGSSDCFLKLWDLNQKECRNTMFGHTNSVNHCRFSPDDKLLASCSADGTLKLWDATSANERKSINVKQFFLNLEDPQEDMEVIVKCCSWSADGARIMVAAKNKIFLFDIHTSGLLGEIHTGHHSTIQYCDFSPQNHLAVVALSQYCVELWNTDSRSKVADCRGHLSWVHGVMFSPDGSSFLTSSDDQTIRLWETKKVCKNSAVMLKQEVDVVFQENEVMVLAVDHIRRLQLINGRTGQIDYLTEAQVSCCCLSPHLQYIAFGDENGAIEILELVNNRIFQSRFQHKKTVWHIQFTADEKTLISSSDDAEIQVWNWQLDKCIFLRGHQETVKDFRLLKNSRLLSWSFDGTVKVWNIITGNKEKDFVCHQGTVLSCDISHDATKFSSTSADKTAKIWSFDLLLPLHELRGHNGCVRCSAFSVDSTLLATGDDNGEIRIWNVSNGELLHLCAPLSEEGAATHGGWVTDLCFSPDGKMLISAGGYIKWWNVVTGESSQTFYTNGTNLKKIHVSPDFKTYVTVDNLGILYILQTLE
It is filed as functional.

The target of assay [2] is Ras and Rab interactor 1/Tyrosine-protein kinase ABL1 (Homo sapiens, UniProt P00519+Q13671). It is filed as functional.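 Further: biochemical TR-FRET dose-response test measuring inhibition of binding between Rin1 and Abl proteins.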
A further assay concerns H9c2. Nature of the assay: cells. It is filed as functional, cell-based. As to conditions: Rattus norvegicus, H9c2, Myocardium.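 Further: confirmatory concentration-response retest of ultra-high-throughput screening hits for modulation of myocardial damage; cell death induced by hydrogen peroxide oxidative stress; compound pretreatment for 60 min then peroxide exposure for 2 h; potency is for protecting the cells against peroxide damage rather than for killing them.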
The target in the next assay is T2, Coagulation factor XII (Homo sapiens, UniProt P00748).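 Further: activated factor XIIa alpha cleaving a fluorogenic AMC peptide substrate; inhibitor potency from loss of enzyme activity.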
T2 sequence (P00748 whole entry): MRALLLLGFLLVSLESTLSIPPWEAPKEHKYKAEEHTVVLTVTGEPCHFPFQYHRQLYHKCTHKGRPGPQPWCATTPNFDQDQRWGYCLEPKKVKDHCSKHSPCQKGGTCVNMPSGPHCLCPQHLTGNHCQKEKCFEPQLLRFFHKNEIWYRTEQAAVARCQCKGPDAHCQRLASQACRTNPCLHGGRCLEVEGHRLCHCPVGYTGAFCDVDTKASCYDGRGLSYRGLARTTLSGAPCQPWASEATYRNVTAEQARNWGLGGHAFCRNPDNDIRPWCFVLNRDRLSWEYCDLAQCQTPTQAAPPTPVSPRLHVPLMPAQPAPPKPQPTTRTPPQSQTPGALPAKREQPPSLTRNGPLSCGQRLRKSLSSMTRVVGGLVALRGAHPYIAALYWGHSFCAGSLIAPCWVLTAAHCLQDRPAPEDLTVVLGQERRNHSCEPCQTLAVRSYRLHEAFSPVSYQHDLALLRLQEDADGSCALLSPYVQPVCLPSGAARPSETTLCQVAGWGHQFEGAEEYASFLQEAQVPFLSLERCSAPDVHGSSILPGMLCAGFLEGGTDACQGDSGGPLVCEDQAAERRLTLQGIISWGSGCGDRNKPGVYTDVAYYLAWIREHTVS
Format: functional.

Assay [3] in a line: cAMP pathway inhibition in counterscreen cell line – TR-FRET cAMP detection, counter-screen for MC4R biased antagonist project, dose response (AID 602305).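 Further: U2OS cells stimulated with forskolin near its EC80 as the cAMP inducer; potency is for inhibition of forskolin-stimulated cAMP signaling.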 Format: functional, cell-based. On the technique in general: A counterscreen serves to expose hits that act by an unwanted route or on another target.
The next assay concerns the target Melanocortin receptor 4 (Homo sapiens, UniProt P32245). Nature of the assay: inhibitors of MC4R cAMP signaling – cell-based, TR-FRET, biased antagonists, dose response (AID 602298).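 Further: antagonist potency against agonist-stimulated cAMP production.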 Format: functional. (Time-resolved FRET reads energy transfer from a long-lived donor to a nearby acceptor.)
In assay [4] the target is T3, High affinity choline transporter 1 (Homo sapiens, UniProt Q9GZV3).
T3 sequence (Q9GZV3 whole entry): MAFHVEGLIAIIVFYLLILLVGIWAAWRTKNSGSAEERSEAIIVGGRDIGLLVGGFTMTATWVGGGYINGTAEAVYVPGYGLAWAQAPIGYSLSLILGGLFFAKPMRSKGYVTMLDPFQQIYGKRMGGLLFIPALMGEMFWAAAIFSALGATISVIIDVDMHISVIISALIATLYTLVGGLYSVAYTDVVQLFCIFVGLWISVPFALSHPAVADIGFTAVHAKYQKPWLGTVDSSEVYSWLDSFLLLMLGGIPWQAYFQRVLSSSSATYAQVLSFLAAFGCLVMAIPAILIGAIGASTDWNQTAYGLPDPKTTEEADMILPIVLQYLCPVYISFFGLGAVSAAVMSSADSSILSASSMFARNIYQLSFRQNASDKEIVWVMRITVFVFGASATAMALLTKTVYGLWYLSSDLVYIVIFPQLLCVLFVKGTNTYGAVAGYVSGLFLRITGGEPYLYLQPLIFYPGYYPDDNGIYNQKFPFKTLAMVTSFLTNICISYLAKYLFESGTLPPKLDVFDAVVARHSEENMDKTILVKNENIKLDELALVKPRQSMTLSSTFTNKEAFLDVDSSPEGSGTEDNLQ
Nature of the assay: human choline transporter blockers, potency – cell-based, 10-point CRC, membrane potential dye, dose response (AID 588401).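 Further: membrane potential dye fluorescence of choline-evoked depolarization via CHT.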 It is filed as functional.

Assay [5] concerns the target T3, High affinity choline transporter 1. In words: human choline transporter blockers, potency – cell-based, 5-point CRC, membrane potential dye, dose response (AID 504840). Format: functional.
The target of a further assay is Beta Lactamase (Pseudomonas aeruginosa, UniProt Q932Y6). In words: BLA reporter interference, concentration series – BLA reporter cells, FRET fluorescence, artefact control for TLR9-MyD88 binding inhibitor project, dose response (AID 588341).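 Further: cell based assay in CHO-K1 cells stably expressing beta-lactamase.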 It is filed as cell-based.
The test system of the next assay is CHO. Nature of the assay: CHO cell viability loss, potency – luminescence, cytotoxicity control for TLR9-MyD88 binding inhibitor project, dose response (AID 588339).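 Further: CHO cells stably coexpressing TLR9 and MyD88 fusions from primary screen; compound exposure lasted 48 hours before viability readout.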 It is filed as functional, cell-based, hamster. As to conditions: Cricetulus griseus.
For a further assay, the target named is Prothrombin (Bos taurus, UniProt P00735). Nature of the assay: thrombin protease inhibitors – biochemical, fluorescence polarization, uHTS hits, dose response (AID 602369). It is filed as functional. Background: In fluorescence polarisation assays a small probe gives low polarisation when free and higher when bound to something large.
Assay [6] has as its target 72 kDa type IV collagenase (Homo sapiens, UniProt P08253). In words: Dose Response validation of uHTS RPN11 inhibitor hits using a MMP-2 Fluorescence assay. Format: functional.
The target in assay [7] is 26S proteasome non-ATPase regulatory subunit 14 (Homo sapiens, UniProt O00487). Nature of the assay: inhibition of proteasome subunit RPN11 – biochemical, fluorescence polarization, uHTS hits, confirmation (AID 602368). It is filed as functional.
The nature of assay [8]: viability loss in HEK293T cells – cell-based, cherry-picks, cytotoxicity control for HIV Vif inhibitor project, dose response (AID 652208). It is filed as functional.
Assay [9] addresses T4, Zinc finger protein mex-5 (Caenorhabditis elegans, UniProt Q9XUB2).
T4 sequence (Q9XUB2 whole entry): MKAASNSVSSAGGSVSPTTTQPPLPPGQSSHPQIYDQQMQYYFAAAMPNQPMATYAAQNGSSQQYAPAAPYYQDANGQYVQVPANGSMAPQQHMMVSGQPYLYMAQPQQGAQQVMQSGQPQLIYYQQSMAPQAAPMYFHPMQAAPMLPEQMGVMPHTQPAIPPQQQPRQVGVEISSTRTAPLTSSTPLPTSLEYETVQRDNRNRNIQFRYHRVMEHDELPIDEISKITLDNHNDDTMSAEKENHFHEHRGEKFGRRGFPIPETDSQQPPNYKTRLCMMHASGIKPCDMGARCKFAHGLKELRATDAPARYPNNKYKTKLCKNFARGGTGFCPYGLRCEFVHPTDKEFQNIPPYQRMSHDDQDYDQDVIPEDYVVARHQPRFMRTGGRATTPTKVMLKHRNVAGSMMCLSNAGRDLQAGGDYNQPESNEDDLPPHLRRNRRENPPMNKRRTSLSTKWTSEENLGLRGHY
Nature of the assay: potency of MEX-5 RNA-binding blockers – biochemical, C. elegans, fluorescence polarization, dose response (AID 1960).

Another assay has as its system Streptococcus. Nature of the assay: GAS UMAA2166 growth inhibition – luminescence, BacTiterGlo, counter-screen for streptokinase expression inhibitor project, dose response (AID 1915).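 Further: potency for reduction of bacterial viability or growth.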 Format: functional, organism-based.
In assay [10] the target is T5, RNA-binding protein pos-1 (Caenorhabditis elegans, UniProt G5EF15).
T5 sequence (G5EF15 whole entry): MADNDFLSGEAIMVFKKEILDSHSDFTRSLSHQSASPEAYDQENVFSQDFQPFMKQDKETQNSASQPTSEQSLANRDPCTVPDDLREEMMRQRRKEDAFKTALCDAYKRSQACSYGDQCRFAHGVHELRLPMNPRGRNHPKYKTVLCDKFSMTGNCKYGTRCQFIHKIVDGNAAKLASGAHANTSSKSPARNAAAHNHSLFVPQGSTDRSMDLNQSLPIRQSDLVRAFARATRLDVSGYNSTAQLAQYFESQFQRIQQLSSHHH
In words: disruptors of C. elegans POS-1 RNA interaction – biochemical, fluorescence polarization, dose response (AID 1964).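 Further: purified POS-1 fused to maltose binding protein made in E. coli; potency of compounds blocking POS-1 binding to fluorescent RNA.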

The next assay concerns the target T6, Streptokinase A (Streptococcus pyogenes serotype M1, UniProt P10520).
T6 sequence (P10520 whole entry): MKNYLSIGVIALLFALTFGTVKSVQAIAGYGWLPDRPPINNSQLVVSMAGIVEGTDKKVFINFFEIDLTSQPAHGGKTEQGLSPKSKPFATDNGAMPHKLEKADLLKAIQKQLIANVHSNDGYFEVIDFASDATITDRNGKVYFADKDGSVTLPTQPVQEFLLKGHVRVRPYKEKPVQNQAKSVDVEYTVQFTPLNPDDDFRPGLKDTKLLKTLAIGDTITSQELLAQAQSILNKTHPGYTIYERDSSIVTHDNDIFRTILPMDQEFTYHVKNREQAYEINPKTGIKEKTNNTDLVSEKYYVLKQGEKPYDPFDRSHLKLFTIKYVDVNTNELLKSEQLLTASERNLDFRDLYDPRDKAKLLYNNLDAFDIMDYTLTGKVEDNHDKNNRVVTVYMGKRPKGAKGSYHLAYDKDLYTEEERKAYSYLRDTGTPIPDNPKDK
Nature of the assay: viability-normalized secreted streptokinase activity reduction – plasminogen activation absorbance, OD405, dose response (AID 1914).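 Further: secreted streptokinase activity via plasminogen activation per viability signal from cell pellet.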 It is filed as functional, Streptococcus pyogenes M1 GAS.

Chain of Melanocortin receptor 4 (P32245 whole entry): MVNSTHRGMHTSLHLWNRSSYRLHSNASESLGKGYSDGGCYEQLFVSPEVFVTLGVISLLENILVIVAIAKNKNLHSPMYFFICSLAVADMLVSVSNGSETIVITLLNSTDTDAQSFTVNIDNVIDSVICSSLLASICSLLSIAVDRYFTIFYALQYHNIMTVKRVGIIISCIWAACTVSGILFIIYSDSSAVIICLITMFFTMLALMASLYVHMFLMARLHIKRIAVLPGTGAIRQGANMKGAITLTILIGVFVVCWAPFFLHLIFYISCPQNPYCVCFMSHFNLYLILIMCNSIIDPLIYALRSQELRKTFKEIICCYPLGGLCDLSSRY
Chain of Beta Lactamase (Q932Y6 whole entry, the tested form may be a part): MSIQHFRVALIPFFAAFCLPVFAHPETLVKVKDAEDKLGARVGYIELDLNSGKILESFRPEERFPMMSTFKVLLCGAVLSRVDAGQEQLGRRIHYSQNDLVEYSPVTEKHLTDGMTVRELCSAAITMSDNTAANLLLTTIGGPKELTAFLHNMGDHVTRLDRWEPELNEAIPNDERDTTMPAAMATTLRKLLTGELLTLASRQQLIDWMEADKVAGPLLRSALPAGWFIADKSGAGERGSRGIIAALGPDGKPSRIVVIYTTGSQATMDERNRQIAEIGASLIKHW
Chain of 72 kDa type IV collagenase (P08253 whole entry): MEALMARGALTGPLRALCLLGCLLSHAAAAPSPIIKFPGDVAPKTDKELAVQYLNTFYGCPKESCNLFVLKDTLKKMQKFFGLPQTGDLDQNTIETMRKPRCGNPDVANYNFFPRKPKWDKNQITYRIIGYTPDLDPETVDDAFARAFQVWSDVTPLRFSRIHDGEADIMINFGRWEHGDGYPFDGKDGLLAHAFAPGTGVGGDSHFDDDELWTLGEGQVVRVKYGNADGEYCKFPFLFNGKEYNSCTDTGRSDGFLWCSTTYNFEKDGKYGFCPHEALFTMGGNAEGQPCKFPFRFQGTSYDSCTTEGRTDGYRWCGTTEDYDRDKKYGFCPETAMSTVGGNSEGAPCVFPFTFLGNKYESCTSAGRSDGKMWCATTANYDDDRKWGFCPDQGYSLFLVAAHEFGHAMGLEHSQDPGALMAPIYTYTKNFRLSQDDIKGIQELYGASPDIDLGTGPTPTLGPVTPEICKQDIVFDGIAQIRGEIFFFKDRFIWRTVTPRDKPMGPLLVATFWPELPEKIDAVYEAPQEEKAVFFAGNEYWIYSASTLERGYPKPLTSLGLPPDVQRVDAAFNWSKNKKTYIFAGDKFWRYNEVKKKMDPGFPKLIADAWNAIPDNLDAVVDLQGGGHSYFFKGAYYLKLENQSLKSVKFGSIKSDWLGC
Chain of Ras and Rab interactor 1/Tyrosine-protein kinase ABL1 (P00519 whole entry): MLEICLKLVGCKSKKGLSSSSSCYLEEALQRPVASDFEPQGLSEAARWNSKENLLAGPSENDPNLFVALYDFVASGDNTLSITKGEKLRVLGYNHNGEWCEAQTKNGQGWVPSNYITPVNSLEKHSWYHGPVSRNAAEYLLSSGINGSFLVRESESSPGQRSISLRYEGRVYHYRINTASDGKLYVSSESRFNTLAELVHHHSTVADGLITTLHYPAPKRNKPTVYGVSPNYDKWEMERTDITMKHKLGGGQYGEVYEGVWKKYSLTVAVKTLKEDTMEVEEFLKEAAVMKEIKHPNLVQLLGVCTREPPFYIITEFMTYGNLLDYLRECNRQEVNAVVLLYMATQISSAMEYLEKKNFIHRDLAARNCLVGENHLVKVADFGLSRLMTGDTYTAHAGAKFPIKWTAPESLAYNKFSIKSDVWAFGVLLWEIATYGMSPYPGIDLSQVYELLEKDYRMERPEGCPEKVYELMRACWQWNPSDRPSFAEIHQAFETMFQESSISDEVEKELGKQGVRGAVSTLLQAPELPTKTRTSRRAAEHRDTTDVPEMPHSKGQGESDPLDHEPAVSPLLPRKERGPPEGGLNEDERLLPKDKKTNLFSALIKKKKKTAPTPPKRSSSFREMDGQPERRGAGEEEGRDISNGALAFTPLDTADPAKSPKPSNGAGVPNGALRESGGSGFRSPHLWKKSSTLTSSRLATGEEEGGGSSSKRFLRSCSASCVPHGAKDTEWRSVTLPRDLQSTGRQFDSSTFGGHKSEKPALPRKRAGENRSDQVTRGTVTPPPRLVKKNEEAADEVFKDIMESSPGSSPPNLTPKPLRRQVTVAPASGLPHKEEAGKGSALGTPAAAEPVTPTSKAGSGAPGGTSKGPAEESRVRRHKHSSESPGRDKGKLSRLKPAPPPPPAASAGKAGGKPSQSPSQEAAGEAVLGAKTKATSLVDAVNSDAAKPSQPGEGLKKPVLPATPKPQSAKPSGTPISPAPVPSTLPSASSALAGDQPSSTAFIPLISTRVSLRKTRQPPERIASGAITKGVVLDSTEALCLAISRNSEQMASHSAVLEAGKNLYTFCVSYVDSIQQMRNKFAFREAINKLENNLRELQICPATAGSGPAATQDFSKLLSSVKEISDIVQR
Chain of Ras and Rab interactor 1/Tyrosine-protein kinase ABL1 (Q13671 whole entry): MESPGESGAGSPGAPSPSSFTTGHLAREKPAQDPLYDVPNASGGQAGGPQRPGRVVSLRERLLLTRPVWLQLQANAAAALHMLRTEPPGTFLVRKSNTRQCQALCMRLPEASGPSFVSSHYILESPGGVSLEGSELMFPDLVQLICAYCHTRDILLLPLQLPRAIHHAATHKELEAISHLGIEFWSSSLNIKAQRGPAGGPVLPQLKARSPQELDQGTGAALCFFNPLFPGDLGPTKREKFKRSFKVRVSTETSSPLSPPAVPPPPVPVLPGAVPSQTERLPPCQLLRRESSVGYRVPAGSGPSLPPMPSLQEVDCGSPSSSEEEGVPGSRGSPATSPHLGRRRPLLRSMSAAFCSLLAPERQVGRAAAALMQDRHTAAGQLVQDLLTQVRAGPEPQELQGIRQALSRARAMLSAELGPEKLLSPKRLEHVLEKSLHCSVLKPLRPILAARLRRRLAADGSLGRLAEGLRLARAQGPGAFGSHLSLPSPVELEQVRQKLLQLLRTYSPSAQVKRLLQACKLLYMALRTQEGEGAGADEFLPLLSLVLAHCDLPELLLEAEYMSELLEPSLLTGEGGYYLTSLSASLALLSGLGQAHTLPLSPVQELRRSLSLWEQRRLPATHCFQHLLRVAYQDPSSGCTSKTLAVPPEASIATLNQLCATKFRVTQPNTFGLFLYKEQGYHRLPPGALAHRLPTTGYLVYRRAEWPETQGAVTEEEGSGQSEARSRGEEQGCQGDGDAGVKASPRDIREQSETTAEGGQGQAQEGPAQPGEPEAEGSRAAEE
Chain of 26S proteasome non-ATPase regulatory subunit 14 (O00487 whole entry): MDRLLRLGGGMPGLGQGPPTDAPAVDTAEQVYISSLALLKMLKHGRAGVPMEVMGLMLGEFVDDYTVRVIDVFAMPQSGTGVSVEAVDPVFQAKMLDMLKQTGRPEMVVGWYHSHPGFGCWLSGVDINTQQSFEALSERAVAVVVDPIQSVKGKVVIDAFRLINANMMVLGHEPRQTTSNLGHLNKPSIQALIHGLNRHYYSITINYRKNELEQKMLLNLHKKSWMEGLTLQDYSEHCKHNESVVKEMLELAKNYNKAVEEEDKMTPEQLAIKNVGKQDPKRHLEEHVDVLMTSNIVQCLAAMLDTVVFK

For `Cc1ccc(-c2nn3c(-c4ccco4)nnc3c3ccccc23)cc1S(=O)(=O)NCC1CCCO1` (stereo unspecified), the results for the IC50 (in assay [1]; in [2]; in the assay with H9c2) were 5.73 µM (active), > 73.5 µM (inactive) and > 79 µM (inactive), respectively.
Take `COc1ccc(CCn2c(C)cc(C(=O)CCl)c2C)cc1OC`: the IC50 on Coagulation factor XII is > 50 µM (inactive); in assay [3] it was > 64.6 µM (inactive); on Melanocortin receptor 4 it was > 64.6 µM (inactive).
Take `N#C/C(=C(/O)c1ccccc1F)c1nc2cc(C(F)(F)F)ccc2s1`: the IC50 in assay [4] was 6.31 µM (active); in [5], 10 µM (active).
Regarding `COC(=O)C(CC(C)C)NC(=O)/C=C/c1ccc(Cl)cc1` (stereo unspecified), the IC50 (in assay [3]; at Melanocortin receptor 4) was > 64.6 µM (inactive) throughout.
For `O=[N+]([O-])c1ccc(N/N=C/c2c[nH]c3ccccc23)cc1`, the IC50 was 10.2 µM (inactive) at Beta Lactamase; 47.2 µM (inactive) in the assay on CHO; 2.05 µM (active) at Prothrombin; > 100 µM (inactive) in assay [6]; 1.77 µM (active) in assay [7].
`CCN1CCN(c2ncnc3scc(-c4ccc(C)cc4)c23)CC1`: the concentration for half-maximal inhibition (IC50) is 1.5 µM (active) in assay [4] and 2.09 µM (active) in [5].
`CC1(C(=O)N/N=C/c2c(F)c(F)c(F)c(F)c2F)CC1(Cl)Cl` (stereo unspecified): the IC50 in assay [3] is > 64.6 µM (inactive); at Melanocortin receptor 4 it was > 7.17 µM (active).
`Nc1c(C(=O)Nc2nc3ccccc3s2)sc2nc(-c3cccs3)ccc12`: the IC50 at Beta Lactamase was 3.93 µM (active); in the assay on CHO it was 5.51 µM (active). Also, the AC50 in [8] was 7.27 µM (active). Moreover, the 50% effective concentration (EC50) in [9] is > 150 µM (inconclusive); in the assay with Streptococcus, 109 µM (active); in assay [10] it was 19.2 µM (inconclusive); at Streptokinase A, > 150 µM (not active).
